Measured values published in the supplement of paper PMC10307832.

How the values were obtained:
Experiment in all cases: relative viability (nuclei count vs DMSO), 5 days (fraction); higher = more cells survive
[1] = compound: C1=CC=C(C(=C1)C2=CC=C(C=C2)C3=CSC4=C3C(=C(C(=O)N4)C#N)O)O + Cc1nc(NC(=O)N2CCC[C@H]2C(N)=O)sc1-c1ccnc(C(C)(C)C(F)(F)F)c1 [Alpelisib] (partner 2 µM)
How it was run: (§1)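 Five library-drug doses in √10 steps were combined with a fixed anchor-drug dose, or a single drug was given alone, by pin tool to lung cancer cell lines in 1536-well plates the day after seeding. Nuclei were stained and counted after 5 days. Relative viability is the nuclei count in treated wells over that in vehicle wells, taken as the median of duplicate plates.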

Ricolinostat + Alpelisib = compound: O=C(CCCCCCNC(=O)c1cnc(N(c2ccccc2)c2ccccc2)nc1)NO [Ricolinostat] + Cc1nc(NC(=O)N2CCC[C@H]2C(N)=O)sc1-c1ccnc(C(C)(C)C(F)(F)F)c1 [Alpelisib] (partner 2 µM)
How it was run: as §1

TGX 221 + Alpelisib = compound: CC1=CN2C(=O)C=C(N=C2C(=C1)C(C)NC3=CC=CC=C3)N4CCOCC4 [TGX 221] + Cc1nc(NC(=O)N2CCC[C@H]2C(N)=O)sc1-c1ccnc(C(C)(C)C(F)(F)F)c1 [Alpelisib] (partner 2 µM)
How it was run: as §1

TGX 221 + Crizotinib = compound: CC1=CN2C(=O)C=C(N=C2C(=C1)C(C)NC3=CC=CC=C3)N4CCOCC4 [TGX 221] + C[C@@H](Oc1cc(-c2cnn(C3CCNCC3)c2)cnc1N)c1c(Cl)ccc(F)c1Cl [Crizotinib] (partner 1 µM)
How it was run: as §1

Cell Line | relative viability ([1]; first compound 0.08 µM) | relative viability ([1]; first compound 0.253 µM) | relative viability ([1]; first compound 0.8 µM) | relative viability ([1]; first compound 2.53 µM) | relative viability ([1]; first compound 8 µM) | relative viability (Ricolinostat + Alpelisib; first compound 0.08 µM) | relative viability (Ricolinostat + Alpelisib; first compound 0.253 µM) | relative viability (Ricolinostat + Alpelisib; first compound 0.8 µM) | relative viability (Ricolinostat + Alpelisib; first compound 2.53 µM) | relative viability (TGX 221 + Alpelisib; first compound 0.08 µM) | relative viability (TGX 221 + Alpelisib; first compound 0.253 µM) | relative viability (TGX 221 + Alpelisib; first compound 0.8 µM) | relative viability (TGX 221 + Alpelisib; first compound 2.53 µM) | relative viability (TGX 221 + Alpelisib; first compound 8 µM) | relative viability (TGX 221 + Crizotinib; first compound 0.08 µM) | relative viability (TGX 221 + Crizotinib; first compound 0.253 µM) | relative viability (TGX 221 + Crizotinib; first compound 0.8 µM) | relative viability (TGX 221 + Crizotinib; first compound 2.53 µM) | relative viability (TGX 221 + Crizotinib; first compound 8 µM)
LCLC-97TM1 | 0.251 | 0.346 | 0.265 | 0.225 | 0.173 | 0.177 | 0.288 | 0.188 | 0.306 | 0.261 | 0.246 | 0.287 | 0.199 | 0.214 | 0.394 | 0.299 | 0.41 | 0.263 | 0.252
NCI-H1734 | 0.658 | 0.675 | 0.697 | 0.724 | 0.542 | 0.469 | 0.684 | 0.645 | 0.721 | 0.619 | 0.509 | 0.562 | 0.448 | 0.448 | 0.652 | 0.643 | 0.643 | 0.588 | 0.537
NCI-H661 | 0.59 | 0.583 | 0.538 | 0.554 | 0.549 | – | 0.597 | 0.642 | 0.844 | 0.45 | 0.52 | 0.201 | 0.559 | 0.516 | – | 1.12 | 0.973 | 0.959 | 1.07
SK-LU-1 | 0.834 | 1.15 | 1.13 | 1.07 | 0.974 | 0.947 | 0.914 | 0.84 | 0.708 | 0.948 | 0.788 | 0.903 | 0.9 | 0.731 | 0.836 | 0.809 | 0.901 | 0.825 | 0.803
LC-2-ad | 0.803 | 0.943 | 1 | 1 | 0.965 | 0.786 | 0.853 | 0.839 | 0.663 | 0.81 | – | 0.722 | 0.645 | 0.62 | 0.438 | 0.423 | 0.475 | 0.499 | 0.486
NCI-H1355 | 0.927 | 1 | 0.899 | 0.829 | 0.663 | – | 0.847 | 0.795 | 0.715 | 0.711 | 0.67 | 0.673 | 0.584 | 0.54 | 1.02 | 1.07 | 1.01 | 0.913 | 0.887
NCI-H1793 | 0.699 | 0.624 | 0.598 | 0.581 | 0.45 | – | 0.633 | 0.698 | 0.755 | 0.611 | 0.503 | 0.482 | 0.446 | 0.406 | – | – | – | – | –
H3255 | 0.799 | 0.778 | 0.68 | 0.687 | 0.563 | 0.517 | 0.651 | 0.678 | 0.661 | 0.568 | 0.581 | 0.534 | 0.448 | 0.378 | 0.745 | 0.812 | 0.881 | 0.848 | 0.575
NCI-H838 | 0.66 | 0.97 | 1.03 | 0.924 | 0.989 | 0.903 | 1.08 | 1.04 | 1.08 | 0.902 | 0.88 | 0.849 | 0.723 | 0.631 | 0.833 | 0.77 | 0.783 | 0.699 | 0.51
NCI-H727 | 0.59 | 0.642 | 0.539 | 0.688 | 0.655 | 0.546 | 0.64 | 0.759 | 0.502 | 0.591 | 0.436 | 0.484 | 0.557 | 0.513 | 0.879 | 0.792 | 0.663 | 0.861 | 0.821
UMC-11 | 0.668 | 0.73 | 1.01 | 1.2 | 0.793 | 0.882 | 1.09 | 0.961 | 0.856 | 0.955 | 0.961 | 0.966 | 1.03 | 1.06 | 0.66 | 0.559 | 0.557 | 0.591 | 0.661
CAL-12T | – | 1.05 | 0.989 | 1.2 | 0.861 | 1.1 | 0.998 | 1.15 | 0.912 | 1.17 | 1.1 | 1.21 | 0.852 | 0.64 | 0.53 | 0.673 | 0.72 | 0.689 | 0.595
NCI-H1755 | 0.861 | 0.957 | 0.941 | 1.03 | 0.883 | 0.771 | – | 0.92 | 0.902 | 0.876 | 0.706 | 0.651 | 0.49 | 0.437 | 0.873 | 0.863 | 0.827 | 0.752 | 0.607
NCI-H1651 | 0.65 | 1.06 | 1.08 | 1.05 | 0.854 | 0.885 | 0.997 | 0.917 | 0.884 | 0.83 | 0.742 | 0.77 | 0.716 | 0.498 | – | 0.834 | 0.865 | 0.839 | 0.753
NCI-H2170 | 0.797 | 0.79 | 0.884 | 0.786 | 0.685 | 0.687 | 0.764 | 0.862 | 0.934 | 0.754 | 0.704 | 0.747 | 0.7 | 0.682 | 1.11 | 1.2 | 1.19 | 0.987 | 1.14
NCI-H1915 | 1.11 | 1.07 | 1.07 | 1.08 | 0.991 | 1.01 | 1.06 | 1.01 | 0.962 | 1 | 0.999 | 1.08 | 1.1 | 1.01 | 0.864 | 0.83 | 0.942 | 0.9 | 0.813
EPLC-272H | – | 1.06 | 0.978 | 0.977 | 0.76 | – | 0.891 | 1.04 | 0.7 | 0.877 | 0.828 | 0.799 | – | 0.62 | 0.827 | 0.57 | 0.833 | – | 0.72
